Assay results published in patent US20040043959A1, “Combination therapies for treating methylthioadenosine phosphorylase deficient cells” (priority 2002, published 2004).

Biological target: T1, Human MTAP (Homo sapiens, UniProt Q13126)
T1 construct: six-histidine tag (His6) (N); made in house; host or cells: E. coli BL21 DE3
T1 sequence (Q13126 1-283): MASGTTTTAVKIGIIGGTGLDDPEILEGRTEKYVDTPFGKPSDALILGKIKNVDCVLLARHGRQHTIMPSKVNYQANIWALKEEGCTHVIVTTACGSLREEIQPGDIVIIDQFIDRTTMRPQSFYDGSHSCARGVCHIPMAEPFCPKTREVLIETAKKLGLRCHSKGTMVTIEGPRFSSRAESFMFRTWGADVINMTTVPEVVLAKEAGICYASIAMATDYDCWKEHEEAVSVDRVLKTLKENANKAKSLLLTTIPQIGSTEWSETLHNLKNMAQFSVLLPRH
Test: MTAP substrate assay, coupled spectrophotometric (adenine, xanthine oxidase)
Assay type: biochemical
Conditions: 2 nM MTAP; for activity at 50 µM: 10 min, compound 50 uM, relative to MTA at 50 uM, read-out: MT-A—50: initial velocity as a percentage of the initial velocity with MTA as substrate; for MT-A—10: initial velocity as a percentage of the initial velocity with MTA as substrate: compound 10 uM, relative to MTA at 10 uM
Outline: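 Detection was xanthine oxidase-coupled (0.8 units/ml), reading adenine-derived absorbance at 305 nm over 10 min in potassium phosphate/DTT buffer at 37° C, with N-His6 enzyme purified from E. coli.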

Row | SMILES | activity at 50 µM | MT-A—10: initial velocity as a percentage of the initial velocity with MTA as substrate
1 | Nc1ncnc2c1ncn2[C@@H]1O[C@H](CSCc2ccc(Cl)cc2Cl)[C@@H](O)[C@H]1O [2(G)(76), (2R, 3R, 4S, 5S)-2-(6-amino-9H-purin-9-yl)-5-{[(2,4-dichlorobenzyl)-thio]methyl}tetrahydro-furan-3,4-diol] | 11% | 14%
2 | CCCC(CCO)SC[C@H]1O[C@@H](n2cnc3c(N)ncnc32)[C@H](O)[C@@H]1O (some centres unmarked) [2(G)(77)] | 6% | 3%
3 | Nc1ncnc2c1ncn2[C@@H]1O[C@H](CSCCCCCCO)[C@@H](O)[C@H]1O [2(G)(78)] | 6% | 3%
4 | CCc1ccc(SC[C@H]2O[C@@H](n3cnc4c(N)ncnc43)[C@H](O)[C@@H]2O)cc1 [2(G)(80)] | 15% | 13%
5 | Nc1ncnc2c1ncn2[C@@H]1O[C@H](CSCCc2c[nH]c3ccccc23)[C@@H](O)[C@H]1O [2(G)(81), (2R, 3R, 4S, 5S)-2-(6-amino-9H-purin-9-yl)-5-({[2-(1H-indol-3-yl)ethyl]thio}methyl)-tetrahydrofuran-3,4-diol] | 18% | 18%
6 | COc1ccc(CSC[C@H]2O[C@@H](n3cnc4c(N)ncnc43)[C@H](O)[C@@H]2O)c(OC)c1 [2(G)(83), (2R, 3R, 4S, 5S)-2-(6-amino-9H-purin-9-yl)-5-{[(2,4-dimethoxybenzyl)-thio]methyl}tetrahydro-furan-3,4-diol] | 8% | 5%
7 | COc1ccc2sc(SC[C@H]3O[C@@H](n4cnc5c(N)ncnc54)[C@H](O)[C@@H]3O)nc2c1 [2(G)(86), (2R, 3R, 4S, 5S)-2-(6-amino-9H-purin-9-yl)-5-{[(5-methoxy-1,3-benzothiozol-2-yl)thio]-methyl}tetrahydro-furan-3,4-diol] | 33% | 31%
8 | Nc1ncnc2c1ncn2[C@@H]1O[C@H](CSc2cccs2)[C@@H](O)[C@H]1O [2(G)(87), (2R, 3R, 4S, 5S)-2-(6-amino-9H-purin-9-yl)-5-[(2-thienylthio)methyl]-tetrahydrofuran-3,4-diol] | 33% | 36%
9 | N#Cc1cccnc1SC[C@H]1O[C@@H](n2cnc3c(N)ncnc32)[C@H](O)[C@@H]1O [2(G)(89), 2-({[(2S, 3S, 4R, 5R)-5-(6-amino-9H-purin-9-yl)-3,4-dihydroxytetrahydro-furan-2-yl]methyl}thio)nicotinonitrile] | 5% | 3%
10 | Nc1ncnc2c1ncn2[C@@H]1O[C@H](CSc2cccc(C(=O)O)c2)[C@@H](O)[C@H]1O [2(G)(90), 3-({[(2S, 3S, 4R, 5R)-5-(6-amino-9H-purin-9-yl)-3,4-dihydroxytetrahydro-furan-2-yl]methyl}thio)benzoic acid] | 8% | 3%
11 | Nc1ncnc2c1ncn2[C@@H]1O[C@H](CSc2ccccc2[N+](=O)[O-])[C@@H](O)[C@H]1O [2(G)(91), (2R, 3R, 4S, 5S)-2-(6-amino-9H-purin-9-yl)-5-{[(2-nitrophenyl)thio]-methyl}tetrahydrofuran-3,4-diol] | 5% | 5%
12 | COC(=O)CCSC[C@H]1O[C@@H](n2cnc3c(N)ncnc32)[C@H](O)[C@@H]1O [2(G)(92), methyl 3-({[(2S, 3S, 4R, 5R)-5-(6-amino-9H-purin-9-yl)-dihydroxytetra-hydrofuran-2-yl]-methyl}thio)propanoate] | 36% | 27%
13 | Nc1ncnc2c1ncn2[C@@H]1O[C@H](CSc2ccc(C(=O)O)cc2)[C@@H](O)[C@H]1O [2(G)(95), 4-({[(2S, 3S, 4R, 5R)-5-(6-amino-9H-purin-9-yl)-3,4-dihydroxytetrahydro-furan-2-yl]methyl}thio)-benzoic acid] | 7% | 7%

Next, values leading:

Row | activity at 50 µM | MT-A—10: initial velocity as a percentage of the initial velocity with MTA as substrate | SMILES
14 | 39% | 32% | Nc1ncnc2c1ncn2[C@@H]1O[C@H](CSCCCO)[C@@H](O)[C@H]1O [2(G)(75)]
15 | 45% | 38% | Cc1csc(SC[C@H]2O[C@@H](n3cnc4c(N)ncnc43)[C@H](O)[C@@H]2O)n1 [2(G)(79), (2R, 3R, 4S, 5S)-2-(6-amino-9H-purin-9-yl)-5-{[(4-methyl-1,3-thiozol-2-yl)thio]methyl}tetrahydrofuran-3,4-diol]
16 | 1% | 1% | Nc1ncnc2c1ncn2[C@@H]1O[C@H](CSc2ccccc2C(F)(F)F)[C@@H](O)[C@H]1O [2(G)(82), (2R, 3R, 4S, 5S)-2-(6-amino-9H-purin-9-yl)-5-({[2-(trifluoromethyl)-phenyl]thio}methyl)tetra-hydrofuran-3,4-diol]
17 | 5% | 4% | Cc1cc(N)c(SC[C@H]2O[C@@H](n3cnc4c(N)ncnc43)[C@H](O)[C@@H]2O)cc1C [2(G)(84)]
18 | 2% | 10% | Nc1ncnc2c1ncn2[C@@H]1O[C@H](CSc2nc3cccnc3s2)[C@@H](O)[C@H]1O [2(G)(85), (2R, 3R, 4S, 5S)-2-(6-amino-9H-purin-9-yl)-5-[([1,3]thiozolo[5,4-b]pyridin-2-ylthio)-methyl]tetrahydrofuran-3,4-diol]
19 | 33% | 25% | CCOC(=O)CSC[C@H]1O[C@@H](n2cnc3c(N)ncnc32)[C@H](O)[C@@H]1O [2(G)(88), ethyl ({[(2S, 3S, 4R, 5R)-5-(6-amino-9H-purin-9-yl)-3,4-dihydroxytetrahydro-furan-2-yl]methyl}thio)acetate]
20 | 17% | 18% | Nc1ncnc2c1ncn2[C@@H]1O[C@H](CSCc2csc3ccccc23)[C@@H](O)[C@H]1O [2(G)(93), (2R, 3R, 4S, 5S)-2-(6-amino-9H-purin-9-yl)-5-{[(1-benzothien-3-ylmethyl)thio]methyl}tetrahydrofuran-3,4-diol]
21 | 5% | 5% | Nc1ncnc2c1ncn2[C@@H]1O[C@H](CSc2nccnc2CCc2ccccc2)[C@@H](O)[C@H]1O [2(G)(94), (2R, 3R, 4S, 5S)-2-(6-amino-9H-purin-9-yl)-5-({[3-(2-phenylethyl)-pyrazin-2-yl]thio}methyl)tetrahydrofuran-3,4-diol]
22 | 6% | 5% | Nc1ncnc2c1ncn2[C@@H]1O[C@H](CSc2ccccc2Cl)[C@@H](O)[C@H]1O [2(G)(96), (2R, 3R, 4S, 5S)-2-(6-amino-9H-purin-9-yl)-5-{((2-chlorophenyl)thio]-methyl}tetrahydrofuran-3,4-diol]
